# Experiments:
# Format in all cases: in vivo
# [1] = test system: horseweed (Erigeron canadensis); assay: Test A postemergence, horseweed; conditions: 0 to 100 scale, 10 days
# Source text: (§1) Seeds of plant species selected from barnyardgrass (Echinochloa crus-galli), blackgrass (Alopecurus myosuroides), corn (Zea mays), foxtail, giant (giant foxtail, Setaria faberi), goosegrass (Eleusine indica), kochia (Bassia scoparia), oat, wild (wild oat, Avena fatua), pigweed, palmer (palmer amaranth, Amaranthus palmeri), pigweed, redroot (redroot pigweed, Amaranthus retroflexus), ragweed (common ragweed, Ambrosia artemisiifolia), ryegrass, Italian (Italian ryegrass, Lolium multiflorum), soybean (Glycine max), and wheat (Triticum aestivum) were planted into a blend of loam soil and sand and treated preemergence with a directed soil spray using test chemicals formulated in a non-phytotoxic solvent mixture which included a surfactant.
# (§2) At the same time, plants selected from these crop and weed species and also galium (catchweed bedstraw, Galium aparine) and horseweed (Erigeron canadensis) were planted in pots containing the same blend of loam soil and sand and treated with postemergence applications of test chemicals formulated in the same manner. Plants ranged in height from 2 to 10 cm and were in the one- to two-leaf stage for the postemergence treatment. Treated plants and untreated controls were maintained in a greenhouse for 10 days, after which time all treated plants were compared to untreated controls and visually evaluated for injury. Plant response ratings, summarized in Table A, are based on a 0 to 100 scale where 0 is no effect and 100 is complete control. A dash (-) response means no test result.
# [2] = test system: barnyardgrass (Echinochloa crus-galli); assay: Test A preemergence, barnyardgrass; conditions: 10 days
# Source text: as §1, §2
# [3] = test system: pigweed, redroot (redroot pigweed, Amaranthus retroflexus); assay: Test A preemergence, redroot pigweed; conditions: 0 to 100 scale, 10 days
# Source text: as §1, §2
# [4] = test system: barnyardgrass (Echinochloa crus-galli); assay: Test A postemergence, barnyardgrass; conditions: 0 to 100 scale, 10 days
# Source text: as §1, §2
# [5] = test system: pigweed, redroot (redroot pigweed, Amaranthus retroflexus); assay: Test A postemergence, redroot pigweed; conditions: 0 to 100 scale, 10 days
# Source text: as §1, §2
# [6] = 125 g ai/ha, 0 to 100 scale (0 no effect, 100 complete control)
SMILES,"Plant response rating, Horseweed ([1]; 31 g ai/ha)","Plant response rating, Horseweed ([1]; 125 g ai/ha)","Plant response rating, Barnyardgrass ([2]; 31 g ai/ha, 0 to 100 scale)","Plant response rating, Barnyardgrass [2, 6]","Plant response rating, Pigweed, Redroot ([3]; 31 g ai/ha)","Plant response rating, Pigweed, Redroot ([3]; 125 g ai/ha)","Plant response rating, Barnyardgrass ([4]; 31 g ai/ha)","Plant response rating, Barnyardgrass ([4]; 125 g ai/ha)","Plant response rating, Pigweed, Redroot ([5]; 31 g ai/ha)","Plant response rating, Pigweed, Redroot ([5]; 125 g ai/ha)"
"Cc1cc(C)c(N2CCC(OC3CC3)C2=O)cc1NS(=O)(=O)C(F)(F)F (stereo not drawn) [Compound 3, N-[5-[3-(cyclopropyloxy)-2-oxo-1-pyrrolidinyl]-2,4-dimethylphenyl]-1,1,1-trifluoromethanesulfonamide]",70,90,–,–,–,–,–,–,–,–
"C#CCOC1CCN(c2cc(NS(=O)(=O)C(F)(F)F)c(C)cc2C)C1=O (stereo not drawn) [Compound 1, N-[2,4-dimethyl-5-[2-oxo-3-(2-propyn-1-yloxy)-1-pyrrolidinyl]phenyl]-1,1,1-trifluoromethanesulfonamide]",–,–,80,100,90,100,80,90,80,90
"C=CCOC1CCN(c2cc(NS(=O)(=O)C(F)(F)F)c(C)cc2C)C1=O (stereo not drawn) [Compound 2, N-[2,4-dimethyl-5-[2-oxo-3-(2-propen-1-yloxy)-1-pyrrolidinyl]phenyl]-1,1,1-trifluoromethanesulfonamide]",–,–,0,100,90,100,30,90,90,90
"Cc1cc(C)c(N(COC(=O)C(C)(C)C)S(=O)(=O)C(F)(F)F)cc1N1CCC(OC2CC2)C1=O (stereo not drawn) [Compound 7, [[5-[3-(cyclopropyloxy)-2-oxo-1-pyrrolidinyl]-2,4-dimethylphenyl][(trifluoromethyl)sulfonyl]amino]methyl 2,2-dimethylpropanoate]",80,90,–,–,–,–,–,–,–,–
"Cc1cc(C)c(N2CCC(OC3CCC3)C2=O)cc1NS(=O)(=O)C(F)(F)F (stereo not drawn) [Compound 4, N-[5-[3-(cyclobutyloxy)-2-oxo-1-pyrrolidinyl]-2,4-dimethylphenyl]-1,1,1-trifluoromethanesulfonamide]",90,100,–,–,–,–,–,–,–,–
"Cc1cc(C)c(N(COC(=O)C(C)(C)C)S(=O)(=O)C(F)(F)F)cc1N1CCC(OC2CCC2)C1=O (stereo not drawn) [Compound 8, [[5-[3-(cyclobutyloxy)-2-oxo-1-pyrrolidinyl]-2,4-dimethylphenyl][(trifluoromethyl)sulfonyl]amino]methyl 2,2-dimethylpropanoate]",70,90,–,–,–,–,–,–,–,–

# From patent US20240158348A1, “HERBICIDAL CYCLIC AMIDES N-SUBSTITUTED WITH A HALOALKYLSULFONYLANILIDE GROUP” (FMC Corporation, priority 2021, published 2024)
